Experimental data taken from PubChem BioAssay (NCI).
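Each compound was tested at five concentrations against cells in 96-well plates for 48 hours. TGI: total growth inhibition.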

Columns and labels:
Experiment in all cases: DTP human tumour cell line panel, 48 h
[1] = system: SN12C renal
[2] = system: HOP-92 NSCLC
[3] = system: OVCAR-3 ovarian
[4] = system: A549 NSCLC
[5] = system: IGROV1 ovarian
[6] = system: SF-268 CNS
[7] = system: U251 CNS
[8] = system: MOLT-4 leukemia
[9] = system: SNB-19 CNS
[10] = system: DMS 273 small cell lung
[11] = system: LOX IMVI melanoma
[12] = system: HCT-15 colon
[13] = system: RXF 393 renal
[14] = system: TK-10 renal
[15] = system: NCI-H23 lung
[16] = system: OVCAR-4 ovarian
[17] = system: M19-MEL melanoma
[18] = system: SF-295 CNS
[19] = system: UACC-257 melanoma
[20] = system: A498 renal
[21] = system: UO-31 renal
[22] = system: NCI-H226 lung
[23] = system: CCRF-CEM leukemia
[24] = system: SK-MEL-28 melanoma
[25] = system: EKVX NSCLC
[26] = system: OVCAR-8 ovarian
[27] = system: SF-539 CNS
[28] = system: HCT-116 colon
[29] = system: KM12 colon
[30] = system: HCC-2998 colon
[31] = system: ACHN renal
[32] = system: CAKI-1 renal
[33] = system: HL-60(TB) leukemia
[34] = system: K-562 leukemia
[35] = system: HOP-18 NSCLC
[36] = system: SW-620 colon
[37] = system: OVCAR-5 ovarian
[38] = system: SNB-75 CNS
[39] = system: SNB-78 CNS
[40] = system: SK-OV-3 ovarian
[41] = system: 786-0 renal
[42] = system: HOP-62 NSCLC
[43] = system: COLO 205 colon
[44] = system: NCI-H460 lung
[45] = system: HT29 colon
[46] = system: UACC-62 melanoma
[47] = system: M14 melanoma
[48] = system: SK-MEL-5 melanoma
[49] = system: DLD-1 colon
[50] = system: MALME-3M melanoma
[51] = system: SK-MEL-2 melanoma
[52] = system: PC-3 prostate
[53] = system: NCI/ADR-RES ovarian
[54] = system: MDA-N
[55] = system: SR leukemia
[56] = system: NCI-H522 lung
[57] = system: HS 578T breast
[58] = system: MCF7 breast
[59] = system: RPMI-8226 leukemia
[60] = system: T-47D breast
[61] = system: DU-145 prostate
[62] = system: BT-549 breast
[63] = system: MDA-MB-435
[64] = system: MDA-MB-231 breast
[65] = system: KM20L2 colon
[66] = system: DMS 114 small cell lung
[67] = system: LXFL 529 NSCLC
[68] = system: XF 498 CNS

With `Cc1ccc(C(=O)C#Cc2c[nH]c(=O)[nH]c2=O)cc1` as the compound, how does the TGI [1] read?
Its TGI is 16.2 µM.

And the TGI [2]?
Its TGI is 33.3 µM.

And the TGI [3]?
Its TGI is 29.8 µM.

And the TGI [4]?
Its TGI is 39.8 µM.

And the TGI [5]?
Its TGI is 31.2 µM.

And the TGI [6]?
The TGI was 26.2 µM.

What about the TGI [7] of the same compound?
Its TGI is 28.2 µM.

And the TGI [8]?
The TGI was 23.8 µM.

And the TGI [9]?
The TGI was 43 µM.

And the TGI [10]?
The TGI was 38.6 µM.

What about the TGI [11] of the same compound?
Its TGI is 15 µM.

What about the TGI [12] of the same compound?
Its TGI is 37.7 µM.

And the TGI [13]?
Its TGI is 12.4 µM.

What about the TGI [14] of the same compound?
The TGI was 31.9 µM.

And the TGI [15]?
The TGI was 39.6 µM.

What about the TGI [16] of the same compound?
The TGI was 47.3 µM.

What about the TGI [17] of the same compound?
The TGI was 36.5 µM.

What about the TGI [18] of the same compound?
The TGI was greater than 100 µM.

And the TGI [19]?
The TGI was 34.6 µM.

And the TGI [20]?
Its TGI is 28 µM.

What about the TGI [21] of the same compound?
Its TGI is 37.7 µM.

What about the TGI [22] of the same compound?
The TGI was 34.5 µM.

And the TGI [23]?
Its TGI is 18.8 µM.

What about the TGI [24] of the same compound?
The TGI was 30.8 µM.

And the TGI [25]?
The TGI was 31.4 µM.

And the TGI [26]?
The TGI was 25.1 µM.

And the TGI [27]?
The TGI was 15.5 µM.

And the TGI [28]?
The TGI was 18.5 µM.

What about the TGI [29] of the same compound?
Its TGI is 28.2 µM.

What about the TGI [30] of the same compound?
Its TGI is 25.3 µM.

What about the TGI [31] of the same compound?
Its TGI is 29 µM.

What about the TGI [32] of the same compound?
Its TGI is 30.5 µM.

And the TGI [33]?
The TGI was 35.1 µM.

And the TGI [34]?
The TGI was 34.2 µM.

And the TGI [35]?
Its TGI is 32.6 µM.

And the TGI [36]?
The TGI was 20.9 µM.

And the TGI [37]?
Its TGI is 33 µM.

What about the TGI [38] of the same compound?
The TGI was 34.4 µM.

What about the TGI [39] of the same compound?
The TGI was 28.5 µM.

What about the TGI [40] of the same compound?
The TGI was 73.6 µM.

What about the TGI [41] of the same compound?
The TGI was 26.2 µM.

And the TGI [42]?
The TGI was 87.7 µM.

What about the TGI [43] of the same compound?
The TGI was 44.3 µM.

And the TGI [44]?
Its TGI is 33.8 µM.

What about the TGI [45] of the same compound?
Its TGI is 49.5 µM.

What about the TGI [46] of the same compound?
Its TGI is 21.8 µM.

And the TGI [47]?
The TGI was 35 µM.

What about the TGI [48] of the same compound?
The TGI was 26.5 µM.

What about the TGI [49] of the same compound?
Its TGI is 22.1 µM.

And the TGI [50]?
Its TGI is 18.7 µM.

What about the TGI [51] of the same compound?
The TGI was 27.6 µM.

Which results are given for `COC(=O)C1(Cc2cccc(C)c2)Cc2c(C)cccc2C1=O` (configuration not stated)?
TGI [1]: > 100 µM; TGI [2]: > 100 µM; TGI [3]: > 100 µM; TGI [52]: > 100 µM; TGI [4]: > 100 µM; TGI [5]: > 100 µM; TGI [6]: > 100 µM; TGI [7]: > 100 µM; TGI [8]: > 100 µM; TGI [9]: > 100 µM; TGI [11]: > 100 µM; TGI [12]: > 100 µM; TGI [53]: 72.2 µM; TGI [13]: > 100 µM; TGI [54]: 34.5 µM; TGI [14]: > 100 µM; TGI [15]: > 100 µM; TGI [55]: > 100 µM; TGI [16]: > 100 µM; TGI [18]: > 100 µM; TGI [19]: > 100 µM; TGI [20]: > 100 µM; TGI [21]: > 100 µM; TGI [56]: 73.3 µM; TGI [22]: > 100 µM; TGI [23]: > 100 µM; TGI [24]: > 100 µM; TGI [25]: > 100 µM; TGI [26]: > 100 µM; TGI [57]: > 100 µM; TGI [27]: > 100 µM; TGI [28]: > 100 µM; TGI [29]: > 100 µM; TGI [58]: 90.8 µM; TGI [30]: > 100 µM; TGI [31]: > 100 µM; TGI [32]: > 100 µM; TGI [33]: > 100 µM; TGI [34]: > 100 µM; TGI [36]: > 100 µM; TGI [37]: > 100 µM; TGI [59]: > 100 µM; TGI [38]: > 100 µM; TGI [60]: > 100 µM; TGI [40]: > 100 µM; TGI [61]: > 100 µM; TGI [41]: > 100 µM; TGI [42]: > 100 µM; TGI [43]: > 100 µM; TGI [62]: > 100 µM; TGI [44]: > 100 µM; TGI [45]: 89.7 µM; TGI [46]: > 100 µM; TGI [47]: > 100 µM; TGI [63]: 41.3 µM; TGI [48]: > 100 µM; TGI [64]: > 100 µM; TGI [50]: > 100 µM; TGI [51]: > 100 µM

What does the source list for `CCCc1nc(NC#N)nc(C(=O)NC23CC4CC(CC(C4)C2)C3)c1C`?
TGI [1]: > 100 µM; TGI [2]: > 100 µM; TGI [3]: > 100 µM; TGI [4]: > 100 µM; TGI [5]: > 100 µM; TGI [6]: > 100 µM; TGI [7]: > 100 µM; TGI [8]: > 100 µM; TGI [9]: > 100 µM; TGI [10]: > 100 µM; TGI [11]: > 100 µM; TGI [65]: > 100 µM; TGI [12]: > 100 µM; TGI [13]: > 100 µM; TGI [14]: > 100 µM; TGI [15]: > 100 µM; TGI [55]: > 100 µM; TGI [16]: > 100 µM; TGI [17]: > 100 µM; TGI [18]: > 100 µM; TGI [19]: > 100 µM; TGI [20]: > 100 µM; TGI [21]: > 100 µM; TGI [56]: > 100 µM; TGI [22]: > 100 µM; TGI [23]: > 100 µM; TGI [24]: > 100 µM; TGI [25]: > 100 µM; TGI [26]: > 100 µM; TGI [27]: > 100 µM; TGI [28]: > 100 µM; TGI [29]: > 100 µM; TGI [66]: > 100 µM; TGI [30]: > 100 µM; TGI [31]: > 100 µM; TGI [32]: > 100 µM; TGI [33]: > 100 µM; TGI [34]: > 100 µM; TGI [35]: > 100 µM; TGI [36]: > 100 µM; TGI [37]: > 100 µM; TGI [59]: > 100 µM; TGI [38]: > 100 µM; TGI [39]: > 100 µM; TGI [40]: > 100 µM; TGI [41]: > 100 µM; TGI [42]: > 100 µM; TGI [43]: > 100 µM; TGI [44]: > 100 µM; TGI [45]: > 100 µM; TGI [46]: > 100 µM; TGI [47]: > 100 µM; TGI [48]: > 100 µM; TGI [67]: > 100 µM; TGI [49]: > 100 µM; TGI [50]: > 100 µM; TGI [51]: > 100 µM

What does the source list for `CN(C)[C@H]1CC[C@H]2[C@@H]3CCC4C[C@@H](NC(=O)NC(Cc5ccccc5)c5nccs5)CC[C@]4(C)[C@H]3CC[C@]12C` (some centres not stated)?
TGI [1]: 3.36 µM; TGI [2]: 2.82 µM; TGI [3]: 3.43 µM; TGI [52]: 2.35 µM; TGI [9]: 3.74 µM; TGI [10]: 3.86 µM; TGI [11]: 3.46 µM; TGI [65]: 2.81 µM; TGI [12]: 2.03 µM; TGI [53]: 4.83 µM; TGI [14]: 3.89 µM; TGI [15]: 3.89 µM; TGI [68]: 2.51 µM; TGI [55]: 4.14 µM; TGI [16]: 3.18 µM; TGI [17]: 3.41 µM; TGI [19]: 3.63 µM; TGI [21]: 3.38 µM; TGI [22]: 3.89 µM; TGI [57]: 5.36 µM; TGI [27]: 3.37 µM; TGI [28]: 1.33 µM; TGI [29]: 3.44 µM; TGI [66]: 3.31 µM; TGI [30]: 3.16 µM; TGI [31]: 2.86 µM; TGI [32]: 3.11 µM; TGI [33]: 0.376 µM; TGI [37]: 3.2 µM; TGI [59]: 3.28 µM; TGI [40]: 3.09 µM; TGI [61]: 6.67 µM; TGI [43]: 3.05 µM; TGI [45]: 1.9 µM; TGI [46]: 3.46 µM; TGI [47]: 3.23 µM; TGI [48]: 3.38 µM; TGI [67]: 1.61 µM; TGI [50]: 3.37 µM; TGI [51]: 3.41 µM
